Experiments:
Assay type in all cases: biochemical
[1] = target: T1, human EGFR (L858R/T790M/C797S) (Homo sapiens, UniProt P00533, C797S/L858R/T790M); assay: Inhibitory activity against EGFR (L858R/T790M/C797S) kinase; settings: Test Example 1, Table 3; ATP 0.5 μM
T1 construct: made in house; host or cells: Sf9 insect cells, baculovirus
Method: 2) Measurement of inhibitory activity against EGFR (L858R/T790M/C797S) kinase
The compounds of the presein invention were measured for their inhibitory activity against EGFR (L858R/T790M/C797S) kinase activity.
The materials, measurement procedures and data analysis method used in this test are substantially the same as those shown in the section “Measurement of inhibitory activity against EGFR (d746-750/T790M/C797S) kinase.” However, among the materials, the kinase protein (SEQ ID NO: 2) used was prepared as follows: the cytoplasmic domain of human EGFR (L858R/T790M/C797S) fused at the amino terminal end with a GST tag was expressed in insect cells (Sf9) by the baculovirus expression system and then purified on a glutathione sepharose column. In the measurement procedures, the final concentration of ATP was set to 0.5 μM. Finally, data analysis was conducted to determine the IC50 value (nM) of each compound against EGFR (L858R/T790M/C797S).
In accordance with the same procedures as shown in 2) in Test Example 1, the compounds of the present invention were measured for their inhibitory activity against EGFR (L858R/T790M/C797S) kinase activity.

[2] = target: T2, human EGFR (d746-750/T790M/C797S) (Homo sapiens, UniProt P00533, C797S/DEL746-750/T790M); assay: Inhibitory activity against EGFR (d746-750/T790M/C797S) kinase; settings: Test Example 1, Table 2; ATP 6 μM, 25° C., 120 minutes
T2 construct: made in house; host or cells: Sf9 insect cells, baculovirus
Method: 1) Measurement of inhibitory activity against EGFR (d746-750/T790M/C797S) kinase
The compounds of the above examples and comparative examples were measured for their inhibitory activity against EGFR (d746-750/T790M/C797S) kinase activity. Among the materials required for measurement of this inhibitory activity, the kinase protein (SEQ ID NO: 1) used was prepared as follows: the cytoplasmic domain of human EGFR (d746-750/T790M/C797S) fused at the ammo terminal end with a glutathione-S-transferase (GST) tag was expressed M insect cells (Sf9) by the baculovirus expression system and then purified an a glutathione sepharose column. For use as a substrate peptide, a peptide biotinylated at the N-terminal end (biotin -EEPLYWSFPAKKK) was synthesized by reference to Perkin Elmer LabChip® series reagent FL-Peptide 22.
Procedures for measurement of the inhibitory activity are as follows. First, the compounds of the present invention were each dissolved in dimethyl sulfoxide (DMSO), and their serial dilutions were then prepared with DMSO. Secondly, each compound serial dilution (final concentration of DMSO during kinase reaction: 2.5%) or DMSO (final concentration: 2.5%) was mixed with a solution containing the substrate peptide (final concentration: 250 nM), magnesium chloride (final concentration: 10 mM), manganese chloride (final concentration: 10 mM) and ATP (final concentration: 6 μM) in a kinase reaction buffer (Carna Biosciences Inc., Japan), and the EGFR (d746-750/T790M/C797S) protein was further added thereto, followed by incubation at 25° C. for 120 minutes to cause kinase reaction. To the reaction solution, EDTA was added to give a final concentration of 24 mM to thereby stop the reaction, followed by addition of a phospholylated tyrosine detection solution containing europium-labeled anti-phosphorylated tyrosine antibody PT66 (Perkin Elmer) and SureLight APC-SA (Perkin Elmer). The reaction solution was allowed to stand at room temperature for 2 hours or longer. As a background, DMSO was used instead of each compound solution in .DMSO, and EDIA was added prior to the addition of the EGFR EGFR (d746-750/T790M/C797S) protein, followed by incubation at 25° C. for 120 minutes. The same detection solution was also added to this reaction solution, which was then allowed to stand for 2 hours or longer. Finally, all the test samples were measured with a PHERAstar FS reader (BMG LABTECH) for their fluorescence intensity at two wavelengths of 620 nm and 665 nm upon irradiation with an excitation light of 337 nm wavelength, and the ratio of fluorescence intensities at these two wavelengths was obtained as data for each compound.
Moreover, as control compounds, the above Comparative Example A (Example 3 in WO2013/118817) and Comparative Example B (Example 35 in WO2013/118817) known to have EGFR inhibitory activity were used.
In accordance with the same procedures as shown in 1) in Test Example 1, the compounds of the above examples were measured for their inhibitory activity against EGFR (d746-750/T790M/C797S) kinase activity.

[3] = target: T3, human EGFR (d746-750/C797S) (Homo sapiens, UniProt P00533, C797S/DEL746-750); assay: Inhibitory activity against EGFR (d746-750/C797S) kinase; settings: Test Example 1, Table 4; ATP 14 μM, 60 minutes
T3 construct: purchased SignalChem
Method: 3) Measurement of inhibitory activity against EGFR (d746-750/C797S) kinase
The compounds of the present invention were measured for their inhibitory activity against EGFR (d746-750/C797S) kinase activity.
The materials, measurement procedures and data analysis method used in this test are substantially the same as those shown in the section “Measurement of inhibitory activity aiainst EGFR (d746-750/T790M/C797S) kinase.” However, among the materials, the kinase protein used was a purified recombinant human EGFR (d746-750/C797S) protein purchased from SignalChem, while the kinase reaction buffer used was 13.5 mM Tris (pH 7.5) containing 2 mM dithiothreitol and 0.009% Tween-20. In the measurement procedures, the final concentration of ATP was set to 14 μM, the final concentration of maganesium chloride was set to 20 mM, the final concentration of manganese chloride was set to 12.5 mM, the incubation time for kinase reaction was set to 60 minutes, and the final concentration of EDTA used to stop the kinase reaction was set to 40 mM. Finally, data analysis was conducted to determine to IC50 value (nM) of each compound against EGFR (d746-750/C797S).
In accordance with the same procedures as shown in 3) in Test Example 1, the compounds of the present invention were measured for their inhibitory activity against EGFR (d746-750/C797S) kinase activity.

[4] = target: T4, human EGFR (WT) (Homo sapiens, UniProt P00533); assay: Inhibitory activity against EGFR (WT) kinase; settings: Test Example 1, Table 6; ATP 1.5 μM
T4 construct: purchased Carna Biosciences Inc., Japan
Method: The compounds of the present invention were measured for their inhibitory activity nainst EGFR (WT) kinase activity.
The materials, measurement procedures and data analysis method used in this test. are substantially the same as those shown in the section “Measurement of inhibitory activity against EGFR (d746-750/T790M/C797S) kinase.” However, among the materials, the kinase protein used was a purified recombinant human EGFR (WT) purchased from Carna Biosciences Inc., Japan. In the measurement procedures, the final concentration of ATP was set to 1.5 μM. Finally, data analysis was conducted to determine the IC50 value (nM) of each compound against EGFR (WT).
In accordance with the same procedures as shown in 5) in Test Example 1, the compounds of the present invention were measured for their inhibitory activity against. EGFR (WT) kinase activity.

[5] = target: T5, human EGFR (L858R/C797S) (Homo sapiens, UniProt P00533, C797S/L858R); assay: Inhibitory activity against EGFR (L858R/C797S) kinase; settings: Test Example 1, Table 5; ATP 4 μM, 90 minutes
T5 construct: purchased SignalChem
Method: 4) Measurement of inhibitory activity against EGFR (L858R/C797S) kinase
The compounds of the present invention were measured for their inhibitory activity aeainst EGFR (L858R/C797S) kinase activity.
The materials, measurement procedures and data analysis method used in this test are stibstantially the same as those shown in the section “Measurement of inhibitory activity against EGFR (d746-750/C797S) kinase.” However, among the materials, the kinase protein used was a purified recombinant human EGFR (C797S/L858R) protein purchased from SignalChem. In the measurement procedures, the final concentration of ATP was set to 4 μM, and the incubation time for kinase reaction was set to 90 minutes. Finally, data analysis was conducted determine the IC50 value (nM) of each compound against EGFR (L858R/C797S).
In accordance with the same procedures as shown in 4) in Test Example 1, the compounds of the present invention were measured for their inhibitor activity against. EGFR (L858R/C797S) kinase activity.

T2 sequence (P00533 with tags, fused parts or gaps DEL746-750/T790M/C797S): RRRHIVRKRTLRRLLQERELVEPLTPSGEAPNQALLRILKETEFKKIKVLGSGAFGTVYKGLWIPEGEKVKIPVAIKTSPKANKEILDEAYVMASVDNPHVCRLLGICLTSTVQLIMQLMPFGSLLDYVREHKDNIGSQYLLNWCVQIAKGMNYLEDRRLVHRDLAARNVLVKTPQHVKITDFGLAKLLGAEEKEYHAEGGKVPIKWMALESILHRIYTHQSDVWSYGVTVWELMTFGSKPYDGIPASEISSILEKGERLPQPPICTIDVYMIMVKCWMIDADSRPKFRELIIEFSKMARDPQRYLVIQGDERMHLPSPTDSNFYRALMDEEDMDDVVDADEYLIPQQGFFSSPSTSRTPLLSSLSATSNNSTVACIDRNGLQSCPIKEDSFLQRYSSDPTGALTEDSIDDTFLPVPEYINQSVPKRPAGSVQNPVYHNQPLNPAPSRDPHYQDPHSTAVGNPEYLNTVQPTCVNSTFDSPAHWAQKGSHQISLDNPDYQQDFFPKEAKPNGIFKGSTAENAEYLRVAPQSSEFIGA
T4 sequence (P00533 25-1210): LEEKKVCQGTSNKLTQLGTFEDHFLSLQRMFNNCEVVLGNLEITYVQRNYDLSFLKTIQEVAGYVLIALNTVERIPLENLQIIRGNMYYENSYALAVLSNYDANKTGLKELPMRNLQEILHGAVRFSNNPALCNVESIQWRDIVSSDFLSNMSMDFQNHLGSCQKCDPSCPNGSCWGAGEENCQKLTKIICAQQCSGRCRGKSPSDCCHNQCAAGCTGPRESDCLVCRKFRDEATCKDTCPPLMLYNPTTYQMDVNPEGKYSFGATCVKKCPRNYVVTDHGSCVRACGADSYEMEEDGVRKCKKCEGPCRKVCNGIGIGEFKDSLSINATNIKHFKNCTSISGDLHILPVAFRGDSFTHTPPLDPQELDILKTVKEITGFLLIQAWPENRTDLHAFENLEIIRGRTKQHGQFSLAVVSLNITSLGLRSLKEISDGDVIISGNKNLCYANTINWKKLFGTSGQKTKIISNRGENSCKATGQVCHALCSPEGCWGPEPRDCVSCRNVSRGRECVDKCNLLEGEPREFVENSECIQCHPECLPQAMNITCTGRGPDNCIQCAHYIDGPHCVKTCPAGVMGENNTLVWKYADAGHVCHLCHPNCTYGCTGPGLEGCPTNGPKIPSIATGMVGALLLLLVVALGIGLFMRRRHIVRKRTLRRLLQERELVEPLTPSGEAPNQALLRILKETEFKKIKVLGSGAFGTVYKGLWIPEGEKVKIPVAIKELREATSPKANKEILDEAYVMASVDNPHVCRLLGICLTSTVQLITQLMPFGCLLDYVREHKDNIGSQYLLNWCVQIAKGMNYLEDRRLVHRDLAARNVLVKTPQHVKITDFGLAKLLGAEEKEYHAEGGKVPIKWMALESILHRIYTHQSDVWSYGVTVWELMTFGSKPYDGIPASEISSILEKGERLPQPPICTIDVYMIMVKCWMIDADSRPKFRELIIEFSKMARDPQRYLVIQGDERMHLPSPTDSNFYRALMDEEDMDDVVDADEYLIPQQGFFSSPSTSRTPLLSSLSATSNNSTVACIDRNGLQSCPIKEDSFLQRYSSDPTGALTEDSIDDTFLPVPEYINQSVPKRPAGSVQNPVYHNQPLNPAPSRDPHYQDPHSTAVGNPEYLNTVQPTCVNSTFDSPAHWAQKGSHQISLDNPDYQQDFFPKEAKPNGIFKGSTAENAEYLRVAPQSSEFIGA
T1 sequence (P00533 with tags, fused parts or gaps T790M/C797S/L858R): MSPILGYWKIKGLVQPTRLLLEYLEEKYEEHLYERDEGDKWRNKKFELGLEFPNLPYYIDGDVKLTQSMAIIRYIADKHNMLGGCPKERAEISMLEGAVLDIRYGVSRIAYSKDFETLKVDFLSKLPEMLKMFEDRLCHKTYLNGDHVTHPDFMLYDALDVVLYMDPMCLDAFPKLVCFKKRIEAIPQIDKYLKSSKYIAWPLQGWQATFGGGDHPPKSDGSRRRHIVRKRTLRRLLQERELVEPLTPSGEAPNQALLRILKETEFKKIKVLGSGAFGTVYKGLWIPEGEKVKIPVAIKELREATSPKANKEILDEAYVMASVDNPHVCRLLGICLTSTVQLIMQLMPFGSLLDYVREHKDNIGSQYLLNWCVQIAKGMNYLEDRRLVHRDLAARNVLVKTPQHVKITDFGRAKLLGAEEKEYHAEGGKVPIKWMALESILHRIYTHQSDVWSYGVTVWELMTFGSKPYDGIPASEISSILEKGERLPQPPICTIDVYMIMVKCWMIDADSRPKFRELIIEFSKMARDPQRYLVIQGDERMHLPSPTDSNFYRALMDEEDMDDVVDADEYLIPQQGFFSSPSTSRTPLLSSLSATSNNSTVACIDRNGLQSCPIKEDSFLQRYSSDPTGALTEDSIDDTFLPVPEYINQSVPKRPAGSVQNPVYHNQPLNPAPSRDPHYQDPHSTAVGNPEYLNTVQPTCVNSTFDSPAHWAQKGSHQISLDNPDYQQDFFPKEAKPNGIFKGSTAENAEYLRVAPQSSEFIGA
T3 sequence (P00533 with tags, fused parts or gaps DEL746-750/C797S): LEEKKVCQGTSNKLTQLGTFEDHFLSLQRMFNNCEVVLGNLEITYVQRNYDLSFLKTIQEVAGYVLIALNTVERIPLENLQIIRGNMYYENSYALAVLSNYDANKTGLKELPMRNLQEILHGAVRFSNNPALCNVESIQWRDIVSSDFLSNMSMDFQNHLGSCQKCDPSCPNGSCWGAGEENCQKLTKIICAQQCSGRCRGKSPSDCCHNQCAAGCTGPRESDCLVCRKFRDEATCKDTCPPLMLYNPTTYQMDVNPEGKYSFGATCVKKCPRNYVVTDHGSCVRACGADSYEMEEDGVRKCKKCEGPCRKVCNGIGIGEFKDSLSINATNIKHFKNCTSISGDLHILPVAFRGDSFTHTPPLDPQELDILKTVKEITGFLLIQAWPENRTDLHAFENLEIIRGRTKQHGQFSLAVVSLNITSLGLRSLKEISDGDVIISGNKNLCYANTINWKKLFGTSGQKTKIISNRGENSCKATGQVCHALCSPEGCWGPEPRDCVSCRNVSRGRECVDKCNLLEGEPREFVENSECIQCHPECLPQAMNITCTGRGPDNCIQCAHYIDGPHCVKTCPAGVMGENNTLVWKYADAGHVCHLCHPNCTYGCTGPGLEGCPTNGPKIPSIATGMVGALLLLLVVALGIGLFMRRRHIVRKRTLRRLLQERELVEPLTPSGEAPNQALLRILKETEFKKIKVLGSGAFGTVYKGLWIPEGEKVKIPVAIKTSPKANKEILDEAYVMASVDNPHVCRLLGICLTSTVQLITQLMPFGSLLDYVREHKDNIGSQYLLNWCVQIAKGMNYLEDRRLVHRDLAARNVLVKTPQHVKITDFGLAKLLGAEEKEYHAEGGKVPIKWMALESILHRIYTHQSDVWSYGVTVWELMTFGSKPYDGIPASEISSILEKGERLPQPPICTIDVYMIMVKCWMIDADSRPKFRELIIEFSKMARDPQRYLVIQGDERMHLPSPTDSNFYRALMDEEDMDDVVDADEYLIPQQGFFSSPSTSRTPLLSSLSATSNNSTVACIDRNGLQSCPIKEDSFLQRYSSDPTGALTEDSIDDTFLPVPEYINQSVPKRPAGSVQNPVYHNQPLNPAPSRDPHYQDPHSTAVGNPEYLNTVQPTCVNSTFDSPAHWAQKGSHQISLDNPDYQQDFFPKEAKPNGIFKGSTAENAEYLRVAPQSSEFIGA
T5 sequence (P00533 25-1210 C797S/L858R): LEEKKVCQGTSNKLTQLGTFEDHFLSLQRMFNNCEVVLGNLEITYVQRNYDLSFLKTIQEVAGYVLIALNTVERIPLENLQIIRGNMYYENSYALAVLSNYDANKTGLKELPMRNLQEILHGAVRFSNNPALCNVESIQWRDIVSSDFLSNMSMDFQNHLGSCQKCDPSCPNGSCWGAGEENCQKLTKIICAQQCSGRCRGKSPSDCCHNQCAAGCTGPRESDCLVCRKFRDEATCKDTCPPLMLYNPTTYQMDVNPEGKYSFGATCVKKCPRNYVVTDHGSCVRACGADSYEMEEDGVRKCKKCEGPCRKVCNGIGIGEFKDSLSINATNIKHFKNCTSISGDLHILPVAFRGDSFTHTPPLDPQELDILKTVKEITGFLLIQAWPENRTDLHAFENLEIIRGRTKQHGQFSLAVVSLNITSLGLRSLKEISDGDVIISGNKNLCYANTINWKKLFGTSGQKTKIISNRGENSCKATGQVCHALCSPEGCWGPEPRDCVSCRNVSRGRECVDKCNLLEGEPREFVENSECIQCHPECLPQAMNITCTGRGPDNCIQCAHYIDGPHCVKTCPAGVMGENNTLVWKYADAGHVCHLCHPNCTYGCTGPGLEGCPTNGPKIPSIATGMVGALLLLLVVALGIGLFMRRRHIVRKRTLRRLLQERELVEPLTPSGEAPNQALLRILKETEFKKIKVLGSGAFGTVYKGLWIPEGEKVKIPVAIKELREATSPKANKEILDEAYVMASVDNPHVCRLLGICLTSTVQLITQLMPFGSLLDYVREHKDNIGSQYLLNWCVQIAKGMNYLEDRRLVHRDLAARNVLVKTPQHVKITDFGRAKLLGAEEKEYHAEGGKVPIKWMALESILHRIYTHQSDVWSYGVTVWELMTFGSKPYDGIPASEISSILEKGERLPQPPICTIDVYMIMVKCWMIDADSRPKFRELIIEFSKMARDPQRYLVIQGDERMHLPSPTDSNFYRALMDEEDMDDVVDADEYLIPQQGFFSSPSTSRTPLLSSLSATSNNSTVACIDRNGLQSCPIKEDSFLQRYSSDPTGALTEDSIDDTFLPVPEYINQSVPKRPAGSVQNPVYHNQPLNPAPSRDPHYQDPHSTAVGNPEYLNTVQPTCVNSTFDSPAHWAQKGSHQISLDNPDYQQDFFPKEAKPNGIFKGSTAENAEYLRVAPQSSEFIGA

SMILES | IC50 [1] [nM] | IC50 [2] [nM] | IC50 [3] [nM] | IC50 [4] [nM] | IC50 [5] [nM]
C#Cc1c(-c2cnc3ccccc3c2)c2c(N)ncnc2n1C12CCC(NCC#N)(CC1)C2 [Example 4, 2-((4-(4-Amino-6-ethynyl-5-(quinolin-3-yl)-7H-pyrrolo[2,3-d]pyrimidin-7-yl)bicyclo-[2.2.1]heptan-1-yl)amino)acetonitrile] | 0.38 | 0.36 | 1 | 2.9 | 1.5
C#Cc1c(-c2cnc3ccccc3c2)c2c(N)ncnc2n1C12CCC(NC(=O)c3ccnn3C)(CC1)CC2 [Example 6, N-(4-(4-Amino-6-ethynyl-5-(quinoiln-3-yl)-7H-pyrrolo[2,3-d]pyrimidin-7-yl)bicyclo-[2.2.2]octan-1-yl)-1-methyl-1H-pyrazole-5-carboxamide] | 0.7 | < 0.3 | 2.1 | 5.2 | 4.6
C#Cc1c(-c2cnc3ccccc3c2)c2c(N)ncnc2n1C12CCC(CO)(CC1)C2 [Example 10] | 0.56 | < 0.3 | 0.62 | 1.1 | 0.95
C#Cc1c(-c2cnc3ccccc3c2)c2c(N)ncnc2n1C12CCC(N(C)C)(CC1)C2 [Example 11, 7-(4-(Dimethylamino)bicyclo[2.2.1]heptan-1-yl)-6-ethynyl-5-(quinolin-3-yl)-7H -pyrrolo[2,3-d]pyrimidine-4-amine] | 0.69 | < 0.3 | 1.6 | 11 | 2.4
C#Cc1c(-c2cnc3ccccc3c2)c2c(N)ncnc2n1C12CCC(NC(=O)OCC)(CC1)C2 [Example 12, Ethyl (4-(4-amino-6-ethynyl-5-(quinolin-3-yl)-7H-pyrrolo[2,3-d]pyrimidin-7-yl) -bicyclo[2.2.1]heptan-1-yl)carbamate] | 0.39 | < 0.3 | 2.4 | 2.1 | 3.8
C#Cc1c(-c2cnc3ccccc3c2)c2c(N)ncnc2n1C12CCC(NC(=O)c3cnc(Cl)cn3)(CC1)C2 [Example 15] | 0.52 | < 0.3 | 0.79 | 1.5 | 1
C#Cc1c(-c2cnc3ccccc3c2)c2c(N)ncnc2n1C12CCC(NC(=O)c3ccnn3CCOC)(CC1)C2 [Example 17, N-(4-(4-Amino-6-ethynyl-5-(quinolin-3-yl)-7H-pyrrolo[2,3-d]pyrimidin-7-yl)bicyclo-[2.2.1]heptan-1-yl)-1-(2-methoxyethyl)-1H-pyrazole-5-carboxamide] | 0.79 | < 0.3 | 0.61 | 2.6 | 0.66
C#Cc1c(-c2cnc3ccccc3c2)c2c(N)ncnc2n1C12CCC(NC(=O)c3nccnn3)(CC1)C2 [Example 19, N-(4-(4-Amino-6-ethynyl-5-(quinolin-3-yl)-7H-pyrrolo[2,3-d]pyrimidin-7-yl)bicyclo-[2.2.1]heptan-1-yl)-1,2,4-triazine-3-carboxamide] | < 0.3 | < 0.3 | < 0.3 | 0.39 | 0.3
C#Cc1c(-c2cnc3ccccc3c2)c2c(N)ncnc2n1C12CCC(NC(=O)c3cnnn3C)(CC1)C2 [Example 22, N-(4-(4-Amino-6-ethynyl-5-(quinolin-3-yl)-7H-pyrrolo[2,3-d]pyrimidin-7-yl)bicyclo-[2.2.1]heptan-1-yl)-1-methyl-1H-1,2,3-triazole-5-carboxamide] | 0.42 | < 0.3 | < 0.3 | 0.55 | 0.35
C#Cc1c(-c2cnc3ccccc3c2)c2c(N)ncnc2n1C12CCC(NC(=O)c3cncn(C)c3=O)(CC1)C2 [Example 25, N-(4-(4-Amino-6-ethynyl-5-(quinolin-3-yl)-7H-pyrrolo[2,3-d]pyrimidin-7-yl)bicyclo-[2.2.1]heptan-1-yl)-1-methyl-6-oxo-1,6-dihydropyrimidine-5-carboxamide] | 0.6 | < 0.3 | 0.4 | 0.51 | 0.59
C#Cc1c(-c2cnc3ccccc3c2)c2c(N)ncnc2n1C12CCC(NC(=O)c3ccnn3-c3ccccc3)(CC1)C2 [Example 26, N-(4-(4-Amino-6-ethynyl-5-(quinolin-3-yl)-7H-pyrrolo[2,3-d]pyrimidin-7-yl)bicyclo-[2.2.1]heptan-1-yl)-1-phenyl-1H-pyrazole-5-carboxamide] | 0.62 | < 0.3 | 0.71 | 2.1 | 0.84

Reference: patent US11786534B2 (TAIHO PHARMACEUTICAL CO., LTD., priority 2019, dated 2023)
